Reference: patent US11117901B2, “Substituted pyrazolo[4,3-h]quinazolines as choline kinase inhibitors” (NERVIANO MEDICAL SCIENCES S.R.L., priority 2017, dated 2021)

Tests used:
[1] = test system: [Phosphocholine] in MDA-MB-468 cell extracts; assay: Phosphocholine determination assay in cell extracts (target inhibition in cells); assay type: cell-based; conditions: Homo sapiens, 24 h treatment, vs untreated control
Description: (§1) For the determination of phosphocholine in cells, extracts were prepared according to ref. Cancer Res., 2005, 65, 9369-9376 with some modifications. MDA-MB-468 breast cancer cell line was plated at 1×10^6 cells in 10 cm petri dish culture in RPMI, 10% FCS culture medium. After 24 h, fresh medium and a compound of general formula (I) were added for further 24 h. At the end of the treatment, the cells were trypsinised, counted and the diameter was determined using a Coulter Counter (Multisizer 3, Beckman). Cells were washed twice with ice-cold physiologic saline solution and 2×10^6 cells resuspended in 0.3 mL ice-cold twice-distilled water. Then, 0.7 mL ice-cold absolut EtOH were added (final ratio EtOH/H2O 70:30, v/v). After 24 h at −20° C. the samples were sonicated and centrifuged at 14,000×g for 30 minutes.
(§2) Phosphocholine concentration levels were assessed in the supernatants using an Ultra High Pressure Liquid Chromatography system (UPLC®, Waters) coupled with a triple quadrupoles mass spectrometer (TQD, Waters) operating in single reaction monitoring mode (SRM). Analyses were performed using Acquity HSS T3 column 2.1×50 mm column, 1.8 μm particle size. Mobile phase A was H2O, modified with 0.15% formic acid, and mobile phase B was MeOH (100% A→97% A over 1 min, flow rate 0.5 mL/min). Waters TQD triple quad mass spectrometer was equipped with an electrospray ion source operating in the positive mode. Source parameters were set as follows: desolvation gas flow 1000 L/h, cone gas flow 50 L/h; collision gas flow 0.2 mL/min; source temperature 130° C.; desolvation temperature 450° C. Dimethyl glicine (DMG) was added to samples as internal standard at 100 μM final concentration. The monitored transitions were m/z 184.00 to 85.7 (collision energy 24 eV) for phosphocholine and m/z 103.0 to 57.5 (collision energy 13 eV) for DMG. The concentration of PCho in the sample was normalized to the total volume of cells (number cells×volume of single cell considered like a sphere).
As an example, the mechanism of action of cpd 39 is reported in Table 2 (Control refers to untreated cells).

[2] = target: T1, hChoKβ FL (Homo sapiens, UniProt Q9Y259); assay: Biochemical kinase inhibition assay (Kinase-Glo luminescent) on hChoKβ FL; conditions: recombinant hChoKβ FL 30 nM, ATP 5 μM, choline 20 μM, 60 min rt; read-out: ChoKβ IC50
T1 construct: hChoKβ full length (FL), corresponding to aminoacids 2-395; GST (N, cleaved yes); PreScission Protease recognition site (N); made in house; host or cells: Escherichia coli BL21pLysS (DE3)
T1 sequence (Q9Y259 2-395): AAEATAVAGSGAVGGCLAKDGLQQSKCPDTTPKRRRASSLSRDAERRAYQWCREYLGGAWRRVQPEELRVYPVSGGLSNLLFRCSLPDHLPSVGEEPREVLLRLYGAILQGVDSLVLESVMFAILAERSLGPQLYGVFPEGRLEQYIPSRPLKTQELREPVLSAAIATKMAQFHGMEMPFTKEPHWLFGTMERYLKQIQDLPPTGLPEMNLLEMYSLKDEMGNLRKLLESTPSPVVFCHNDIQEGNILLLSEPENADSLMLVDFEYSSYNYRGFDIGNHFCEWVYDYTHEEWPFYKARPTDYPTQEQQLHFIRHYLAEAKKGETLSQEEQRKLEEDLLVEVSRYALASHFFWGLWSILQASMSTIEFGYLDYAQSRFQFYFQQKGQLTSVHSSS
Method in brief: (§3)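 Kinase-Glo residual-ATP luminescence with in-house E. coli-expressed, tag-cleaved enzymes: Δ49N-hChoKα 2.2 nM with 5 μM choline; hChoKβ FL 30 nM with 20 μM choline. Both used 5 μM ATP, 60 min at room temperature, 1% DMSO, pH 7.5 Hepes buffer. IC50 from 4-parameter fits of ten 3-fold dilutions from 10 μM.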

[3] = test system: [Phosphocholine] in MDA-MB-468 cell supernatants; assay: Phosphocholine determination in cell culture medium (supernatants); assay type: cell-based; conditions: Homo sapiens, 24 h treatment, vs untreated control
Description: as §1
as §2, with “Dimethyl glicine (DMG) was added to samples as internal standard at 100 μM final concentration.” left out, “The concentration of PCho in the sample was normalized to the total volume of cells (number cells×volume of single cell considered like a sphere).” left out
For the determination of phosphocholine in cell culture medium, cell culture supernatants (500 μL) were denatured by adding 100 μL of trichloroacetic acid (TCA) 1M containing dimethyl glicine (DMG) (100 μM), used as internal standard. […] The supernatants were subsequently analyzed for phosphocholine determination. […]

[4] = target: T2, Δ49N-hChoKα (Homo sapiens, UniProt P35790); assay: Biochemical kinase inhibition assay (Kinase-Glo luminescent) on Δ49N-hChoKα; conditions: recombinant Δ49N-hChoKα 2.2 nM, ATP 5 μM, choline 5 μM, 60 min rt; read-out: ChoKα IC50
T2 construct: cDNA fragment 362-1534, corresponding to aminoacids 50 457; GST (N, cleaved yes); PreScission Protease recognition site (N); made in house; host or cells: Escherichia coli BL21pLysS (DE3)
T2 sequence (P35790 50-439 isoform P35790-2): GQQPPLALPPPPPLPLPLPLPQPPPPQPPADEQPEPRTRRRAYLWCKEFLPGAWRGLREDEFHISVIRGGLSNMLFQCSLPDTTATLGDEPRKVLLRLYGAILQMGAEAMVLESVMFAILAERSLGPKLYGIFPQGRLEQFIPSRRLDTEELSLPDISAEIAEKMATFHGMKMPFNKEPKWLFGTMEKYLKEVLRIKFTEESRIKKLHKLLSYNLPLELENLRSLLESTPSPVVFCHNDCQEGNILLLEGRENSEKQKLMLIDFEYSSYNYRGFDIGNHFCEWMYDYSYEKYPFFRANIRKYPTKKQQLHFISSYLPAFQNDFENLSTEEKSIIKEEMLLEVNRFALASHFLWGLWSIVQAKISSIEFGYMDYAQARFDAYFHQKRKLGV
Method in brief: as §3

IC50 [2] [nM] | IC50 [4] [nM] | SMILES | inhibition at 0.08 µM ([1]; 0.08 μM compound) [%] | inhibition at 0.4 µM ([1]; 0.4 μM compound) [%] | inhibition at 2 µM ([1]; 2 μM compound) [%] | inhibition at 0.08 µM ([3]; 0.08 μM compound) [%] | inhibition at 0.4 µM ([3]; 0.4 μM compound) [%] | inhibition at 2 µM ([3]; 2 μM compound) [%]
84 | 2 | CC1(C)Cc2cnc(N)nc2-c2[nH]nc(C(=O)Nc3nc(CC(=O)N4CCC(N5CCCCC5)CC4)cs3)c21 [compound 39] | 35 | 87 | 98 | 42 | 85 | 88
1580 | 257 | COc1cccc(NC(=O)c2n[nH]c3c2C(C)(C)Cc2cnc(N)nc2-3)c1 [compound 1] |  |  |  |  |  | 
69 | 180 | CC1(C)Cc2cnc(N)nc2-c2[nH]nc(C(=O)NCc3ccc(C(=O)N4CCC(N5CCCCC5)CC4)cc3)c21 [compound 165] |  |  |  |  |  | 
1620 | 110 | CC(C)(C)OC(=O)NC1CCN(C(=O)c2ccc(NC(=O)c3n[nH]c4c3C(C)(C)Cc3cnc(N)nc3-4)cc2)CC1 [compound 46] |  |  |  |  |  | 
1650 | 10 | CC1(C)Cc2cnc(N)nc2-c2[nH]nc(C(=O)Nc3nc(CC(=O)N4CCC(N5CCCC(F)(F)C5)CC4)cs3)c21 [compound 222] |  |  |  |  |  | 
292 | 6 | CC1(C)Cc2cnc(N)nc2-c2[nH]nc(C(=O)Nc3nc(COC4CCN(C5CCCCC5)CC4)cs3)c21 [compound 157] |  |  |  |  |  | 
